These results are taken from patent US11458123B2 (Arvinas, Inc., priority 2016, dated 2022).

In the experiment the test system is tau protein. The experiment can be described thus: Tau protein in vitro degradation assay (Western blot, Tau-13 antibody). The format is cell-based, human. Conditions: SK-N-SH cells; 72 hours of incubation; tested at 300 nM, 100 nM, 33 nM and 11 nM; Western blot, Tau-13 antibody. The essentials:
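SK-N-SH cells, seeded ≥18 h beforehand, were incubated 72 h with tau PROTACs at 1000, 300 and 100 nM or at 300, 100, 33 and 11 nM. Lysates in protease-inhibitor buffer were resolved by SDS-PAGE; tau quantified by Western blot with Tau-13 antibody recognising all human tau forms.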
Background: In western blotting, separated proteins are transferred to a membrane and probed.
Turning to `Cn1c2ccncc2c2ccc(-c3ccc(O[C@H]4C[C@H](Oc5ccc(C#CCN6CC(Oc7ccc8c(c7)C(=O)N(C7CCC(=O)NC7=O)C8=O)C6)nc5)C4)nc3)cc21` (stereo partly drawn) [Compound 152, 2-(2,6-dioxopiperidin-3-yl)-5-((1-(3-(5-((1r,3r)-3-((5-(5-methyl-5H-pyrido[4,3-b]indol-7-yl)pyridin-2-yl)oxy)cyclobutoxy)pyridin-2-yl)prop-2-yn-1-yl)azetidin-3-yl)oxy)isoindoline-1,3-dione], the “Degradation activity* (highest amount of degradation observed at any dosage; tau protein remaining)” value is reported as “A (≤50% tau protein remaining after 72 hours of incubation with the test compound)”. For the compound `Cn1c2ccncc2c2ccc(-c3ccc(O[C@H]4C[C@H](OCCCC(F)(F)COC5CC6(C5)CN(c5ccc7c(c5)C(=O)N(C5CCC(=O)NC5=O)C7=O)C6)C4)nc3)cc21` (stereo partly drawn) [Compound 197, 5-(6-((2,2-difluoro-5-((1r,3r)-3-((5-(5-methyl-5H-pyrido[4,3-b]indol-7-yl)pyridin-2-yl)oxy)cyclobutoxy)pentyl)oxy)-2-azaspiro[3.3]heptan-2-yl)-2-(2,6-dioxopiperidin-3-yl)isoindoline-1,3-dione], the “Degradation activity (tau protein remaining; highest amount of degradation observed at any dosage)” value was “C (>80% tau protein remaining after 72 hours of incubation with the test compound)”. The same measure, in the same setting: in the case of `Cc1ncsc1-c1ccc(CNC(=O)[C@@H]2C[C@@H](O)CN2C(=O)[C@H](C(C)C)N2Cc3ccccc3C2=O)c(OCCOCCOCCOCCOc2ccc(-c3ccc4c(c3)[nH]c3ccncc34)cn2)c1` [Compound 196, (2S,4R)—N-(2-(2-(2-(2-(2-((5-(5H-pyrido[4,3-b]indol-7-yl)pyridin-2-yl)oxy)ethoxy)ethoxy)ethoxy)ethoxy)-4-(4-methylthiazol-5-yl)benzyl)-4-hydroxy-1-((S)-3-methyl-2-(1-oxoisoindolin-2-yl)butanoyl)pyrrolidine-2-carboxamide] it was “C (>80% tau protein remaining after 72 hours of incubation with the test compound)”. Turning to `Cc1ncsc1-c1ccc([C@H](C)NC(=O)[C@@H]2C[C@@H](O)CN2C(=O)[C@@H](NC(=O)COCCOCCOCCOCCOCCOCCOc2ccc(-c3ccc4c(c3)[nH]c3ccncc34)cn2)C(C)(C)C)cc1` [Compound 122, (2S,4R)-1-((S)-23-((5-(5H-pyrido[4,3-b]indol-7-yl)pyridin-2-yl)oxy)-2-(tert-butyl)-4-oxo-6,9,12,15,18,21-hexaoxa-3-azatricosanoyl)-4-hydroxy-N—((S)-1-(4-(4-methylthiazol-5-yl)phenyl)ethyl)pyrrolidine-2-carboxamide], the “Degradation activity* (highest amount of degradation observed at any dosage; tau protein remaining)” value is recorded as “C (>80% tau protein remaining after 72 hours of incubation with the test compound)”. Consider `Cc1ncsc1-c1ccc(CNC(=O)[C@@H]2C[C@@H](O)CN2C(=O)[C@H](C(C)C)N2Cc3ccccc3C2=O)c(OCCOCCOc2ccc(-c3ccc4c(c3)[nH]c3ccncc34)cn2)c1` [Compound 186, (2S,4R)—N-(2-(2-(2-((5-(5H-pyrido[4,3-b]indol-7-yl)pyridin-2-yl)oxy)ethoxy)ethoxy)-4-(4-methylthiazol-5-yl)benzyl)-4-hydroxy-1-((S)-3-methyl-2-(1-oxoisoindolin-2-yl)butanoyl)pyrrolidine-2-carboxamide], for which the “Degradation activity (tau protein remaining; highest amount of degradation observed at any dosage)” value is “B (≤80% and >50% tau protein remaining after 72 hours of incubation with the test compound)”. The same measure, in the same setting: the same measure for `Cn1c2ccncc2c2ccc(-c3cnc(OCCOCCOCCOCCOCCOc4ccc5c(c4)C(=O)N(C4CCC(=O)NC4=O)C5=O)c(C#N)c3)cc21` (stereo not drawn) [Compound 203, 2-((14-((2-(2,6-dioxopiperidin-3-yl)-1,3-dioxoisoindolin-5-yl)oxy)-3,6,9,12-tetraoxatetradecyl)oxy)-5-(5-methyl-5H-pyrido[4,3-b]indol-7-yl)nicotinonitrile]: “A (≤50% tau protein remaining after 72 hours of incubation with the test compound)”.
